Laboratory results as given in patent US10047036B2, “Method for the synthesis of hydroxy-triglycerides and uses thereof for the prevention and treatment of diseases” (UNIVERSITAT DE LES ILLES BALEARS, priority 2014, dated 2018).

How the values were obtained:
[1] = membrane transition temperatures by X-ray diffraction; assay type: physicochemical; conditions: POPE with 1 mol % of TGM
Text: As can be appreciated, the presence of TGM induce a very important reduction in the lateral surface tension which is evident from the reduction in the value of the lamellar-to-hexagonal (L-a-HII) transition temperature, which in turn indicates an increase in non-lamellar propensity: Table 12). This effect has an important repercussion on the functionality of the membrane, as this structure allows for the anchoring of certain membrane proteins necessary for cell signalling. For this reason, it can be said that the TGMs have a positive effect on cell signalling because they allow the propagation of cell signals which are lost in association with a wide variety of diseases. This effect shown on the structure of the membrane explains in part why certain oils, such as olive oil or fish oil, have important beneficial properties for the prevention of various diseases, such as cancer, cardiovascular/metabolic diseases and neurological/neurodegenerative diseases. FIG. 6 and Table 12 show clearly how all the TGMs have a similar effect, although with minor nuances in each case. The effect on the solid-liquid transition (Tm) and the lamellar to hexagonal transition (TH) was measured in membranes of palmitoyl-oleoyl phosphatidylethanolamine (POPE) by means of X-ray diffraction in the absence of (POPE Control) or presence of 1 mol % of each one of the indicated TGMs.

systolic blood pressure = systolic blood pressure in spontaneously hypertensive rats; assay type: in vivo; conditions: SHR rats; for Δ SP, change in systolic blood pressure: 14 days, 600 mg/kg every 12 hours, basal 216 mmHg; for drops in systolic blood pressure: 14-day treatments with 600 mg/kg
Text: Metabolic and cardiovascular pathologies are closely related. The overfeeding which characterises our society not only gives rise to problems of obesity and excess weight. It is also linked to the appearance of diabetes, dyslipidaemia, hypertension, strokes, arteriosclerosis, ictus, etc. All of these pathologies increase the risk of premature death and can even cause death. In this sense, certain natural oils show a certain efficacy against this type of pathologies, but their power is limited. In contrast, the molecules of the invention have an important effect against the development of this type of pathologies. To be able to study the effects of the compounds of the invention for the prevention and treatment of metabolic and cardiovascular pathologies, hypertensive rats were used (SHR strain, spontaneously hypertensive rats). These rats present obesity, high blood pressure, dyslipidaemia (hypercholesterolemia and hypertriglyceridemia), diabetes, metabolic syndrome and other related health problems. Hypertensive rats of the SHR strain (spontaneously hypertensive rats) with an approximate weight of 300 grams were treated with TGM1 during 9 days (400 mg/kg, every 12 h, p.o.). Systolic pressure was measured before starting the treatment (basal) and 9 days later. In these animals with a metabolic/cardiovascular pathology, this treatment with TGM1 produced drops in blood pressure of approximately 25 mmHg, while the 14-day treatments with 600 mg/kg of TGM1 induced even greater drops in systolic blood pressure of up to 37 mmHg for TGM1 and up to 52 mmHg for TGM6 (FIG. 4 and Table 3). […] [table]

Structure (SMILES) | TH, lamellar to hexagonal transition temperature [1] | Tm, solid-liquid transition temperature [1] | Δ SP, change in systolic blood pressure (systolic blood pressure; p.o.) | drops in systolic blood pressure (systolic blood pressure) | drops in blood pressure (systolic blood pressure; 9 days, 400 mg/kg every 12 h, p.o.)
CCCCCC(O)C(=O)OCC(COC(=O)C(O)CCCCC)OC(=O)C(O)CCCCC (stereo not shown) [TGM0, 1,2,3-tri(2′-hydroxyheptanoyl)glycerol] | 68.3 ± 0.6 °C | 22.7 ± 0.2 °C | −8 mmHg | – | –
CCCCCC=CCC=CCC=CCC=CCCC(O)C(=O)OCC(COC(=O)C(O)CCC=CCC=CCC=CCC=CCCCCC)OC(=O)C(O)CCC=CCC=CCC=CCC=CCCCCC (stereo not shown) [TGM4, 1,2,3-tri(2′-hydroxy-eicosa-5′,8′,11′,14′-tetraenoyl)glycerol] | 64.6 ± 0.8 °C | 23.2 ± 0.2 °C | −43 mmHg | – | –
CCCCCC=CCC=CCCCCCCC(O)C(=O)OCC(COC(=O)C(O)CCCCCCC=CCC=CCCCCC)OC(=O)C(O)CCCCCCC=CCC=CCCCCC (stereo not shown) [TGM2, 1,2,3-tri(2′-hydroxy-octadec-9′,12′-dienoyl)glycerol] | 62.0 ± 1.1 °C | 23.6 ± 0.3 °C | −41 mmHg | – | –
CCCCCC=CCC=CCC=CCCCC(O)C(=O)OCC(COC(=O)C(O)CCCC=CCC=CCC=CCCCCC)OC(=O)C(O)CCCC=CCC=CCC=CCCCCC (stereo not shown) [TGM3G, 1,2,3-tri(2′-hydroxy-octadec-6′,9′,12′-trienoyl)glycerol] | 63.6 ± 1.1 °C | 23.3 ± 0.3 °C | −21 mmHg | – | –
CCC=CCC=CCC=CCCCCCCC(O)C(=O)OCC(COC(=O)C(O)CCCCCCC=CCC=CCC=CCC)OC(=O)C(O)CCCCCCC=CCC=CCC=CCC (stereo not shown) [TGM3A, 1,2,3-tri(2′-hydroxy-octadec-9′,12′,15′-trienoyl)glycerol] | 63.0 ± 1.1 °C | 23.4 ± 0.2 °C | −28 mmHg | – | –
CCC=CCC=CCC=CCC=CCC=CCC=CCC(O)C(=O)OCC(COC(=O)C(O)CC=CCC=CCC=CCC=CCC=CCC=CCC)OC(=O)C(O)CC=CCC=CCC=CCC=CCC=CCC=CCC (stereo not shown) [TGM6, 1,2,3-tri(2′-hydroxy-docosa-4′,7′,10′,13′,16′,19′-hexanoyl)glycerol] | 64.9 ± 0.9 °C | 23.3 ± 0.2 °C | −52 mmHg | up to 52 mmHg | –
CCC=CCC=CCC=CCC=CCC=CCCC(O)C(=O)OCC(COC(=O)C(O)CCC=CCC=CCC=CCC=CCC=CCC)OC(=O)C(O)CCC=CCC=CCC=CCC=CCC=CCC (stereo not shown) [TGM5, 1,2,3-tri(2′-hydroxy-eicosa-5′,8′,11′,14′,17′-pentaenoyl)glycerol] | – | – | −40 mmHg | – | –
CCCCCCCCC=CCCCCCCC(O)C(=O)OCC(COC(=O)C(O)CCCCCCC=CCCCCCCCC)OC(=O)C(O)CCCCCCC=CCCCCCCCC (stereo not shown) [TGM1, 1,2,3-tri(2′-hydroxy-octadec-9′-enoyl)glycerol] | 66.0 ± 0.9 °C | 23.8 ± 0.3 °C | −37 mmHg | up to 37 mmHg | approximately 25 mmHg
